According to patent publication US20260240832A1, “USE OF NITROXOLINE COMPOUND IN ENHANCING EFFECT OF ANTIBACTERIAL AGENT” (Jiangsu Yahong Meditech Co., Ltd., priority 2022, published 2026):
Like-named read-outs stand apart in the source and are kept apart here.

Legend:
[1] = test system: carbapenem-resistant Acinetobacter baumannii; assay: Chessboard microbroth dilution MIC/FIC, compound 1 in combination with meropenem; assay type: cell-based; conditions: for MIC: Acinetobacter baumannii; for Compound 1 MIC in combination: with meropenem; for Meropenem MIC in combination: with compound 1
Description: This experiment is designed to determine the minimum inhibitory concentration (MIC) of compound 1 in combination with meropenem against Acinetobacter baumannii (a strain resistant to carbapenem antibiotics) and to calculate the fractional inhibitory concentration (FIC) index.
Test bacteria: A total of 9 strains of Acinetobacter baumannii, all of which are resistant to carbapenem antibiotics (e.g., meropenem), are clinically isolated strains, and are provided by Shanghai Junji Medical Laboratory Co., Ltd.
According to the recommendation of the Clinical and Laboratory Standards Institute (CLSI), the microbroth dilution method designed by the chessboard method was used to determine the minimum inhibitory concentration (MIC) of compound 1 in combination with meropenem against the above strains, and the fractional inhibitory concentration (FIC) index was calculated.
Compound 1 was dissolved in dimethyl sulfoxide to obtain a stock solution I with a concentration of 1280 mg/L. The stock solution I was diluted to 512 mg/L with sterile water to obtain a gradient dilution first tube solution I. The gradient dilution first tube solution I was subjected to 1:1 gradient dilution with sterile water to obtain a working solution I with a gradient range of 512 to 0.25 mg/L.
Meropenem was dissolved in sterile water to obtain a stock solution II with a concentration of 5120 mg/L. The stock solution II was diluted to 1024 mg/L with sterile water to obtain a gradient dilution first tube solution II. The gradient dilution first tube solution II was subjected to 1:1 gradient dilution with sterile water to obtain a working solution II with a gradient range of 1024 to 0.5 mg/L.
50 μL of solution was taken from each tube of working solution I, and added to the drug sensitivity plate row by row starting from the second well of each row (in each row, the concentration of compound 1 increased from the second well to the last well). 50 μL of solution was taken from each tube of working solution II, and added to the drug sensitivity plate column by column starting from the second well of each column (in each column, the concentration of meropenem increased from the second well to the last well). As a result, a chessboard cross with different concentrations of the two drugs was formed (wherein, there was neither compound 1 nor meropenem in the intersection well of the first row and the first column; the wells of the first row except the intersection well only contained compound 1, and the wells of the first column except the intersection well only contained meropenem; except for the above wells, the remaining wells contained […] and meropenem).
According to the above process, the volume of the drug solution in each well containing only one drug of the drug sensitivity plate was 50 μL, thus 50 μL of sterile water was added to each well. 100 μL of sterile water was added to the intersection well of the first row and the first column. After that, 100 μL of bacterial solution (formulated according to step (3)) was added to all the wells of the drug sensitivity plate and mixed.
(2) The culture medium of the bacterial solution: Cation-Adjusted Mueller-Hinton Broth (CAMHB), a product of BBL, USA, batch number 9015952.
(3) Formulation method of bacterial solution: According to the direct colony suspension method, the test bacteria cultured overnight were prepared into a 0.5 McFarland turbidity tube using physiological saline. Then, the resulting solution was dilute 100 times with the above culture medium. 100 μL of the resulting bacterial solution was mixed well with the solution (100 μL) in each well of the drug sensitivity plate, and the final inoculation amount was 10^5 CFU/mL.
(4) Culture conditions: Culturing at 35±2° C. for 20 hours in air.
(1) The experimental results were determined according to the standard of CLSI 2019 M100 29th edition. […]

[2] = test system: drug-resistant Escherichia coli 1864; assay: MIC of antibiotics against drug-resistant Escherichia coli II (resistance profile of the strain); assay type: cell-based; conditions: drug-resistant Escherichia coli 1864; read-out: MIC
Description: 1 strain of drug-resistant Escherichia coli II, namely drug-resistant Escherichia coli 1864, is provided by the School of Pharmacy of Fudan University. This strain is resistant to fluoroquinolone antibiotics (such as levofloxacin), non-fluoroquinolone antibiotics (such as nalidixic acid, nemofloxacin), aminoglycoside antibiotics (such as gentamicin), glycopeptide antibiotics (such as vancomycin) and carbapenem antibiotics (such as meropenem).

[3] = strain 18-J11-001, compound 1 + meropenem
[4] = strain 18-J11-002, compound 1 + meropenem
[5] = strain 18-J11-034, compound 1 + meropenem
[6] = strain 18-J11-097, compound 1 + meropenem
[7] = strain 18-J15-030, compound 1 + meropenem
[8] = strain 18-J21-095, compound 1 + meropenem
[9] = strain 18-J24-015, compound 1 + meropenem
[10] = strain 18-J40-021, compound 1 + meropenem
[11] = strain 18-J51-052, compound 1 + meropenem

Compound `O=[N+]([O-])c1c(Br)c(Cl)c2cccnc2c1O` [Compound 1, 6-bromo-5-chloro-7-nitroquinolin-8-ol] has an MIC ([1]; strain 18-J11-001, read-out: Compound 1 MIC alone) of 8 µg/mL, an MIC ([1]; strain 18-J11-002, read-out: Compound 1 MIC alone) of 4 µg/mL and an MIC ([1]; strain 18-J11-034, read-out: Compound 1 MIC alone) of 4 µg/mL. The MIC ([1]; strain 18-J11-097, read-out: Compound 1 MIC alone) was 8 µg/mL, the MIC ([1]; strain 18-J15-030, read-out: Compound 1 MIC alone) was 16 µg/mL and the MIC ([1]; strain 18-J21-095, read-out: Compound 1 MIC alone) was 8 µg/mL. It also gave an MIC ([1]; strain 18-J24-015, read-out: Compound 1 MIC alone) of 8 µg/mL, an MIC ([1]; strain 18-J40-021, read-out: Compound 1 MIC alone) of 8 µg/mL and an MIC ([1]; strain 18-J51-052, read-out: Compound 1 MIC alone) of 4 µg/mL. For the same compound, the “change of the MIC of meropenem by the combination” value ([1]; compound 1 + meropenem) was “significantly reduce”, the “effect of the combination (summary of Table 1)” value ([1]; compound 1 + meropenem, strains resistant to carbapenem antibiotics) was “additive effect (0.5<FIC≤1.0 indicates additive effect)” and the FIC index [1, 3] was 0.750. The Results [1, 3] was “Additive”, the “Compound 1 MIC in combination” value ([1]; strain 18-J11-001) was 4 mg/L and the FIC index [1, 4] was 0.750. For the same compound, the Results [1, 4] was “Additive”, the “Compound 1 MIC in combination” value ([1]; strain 18-J11-002) was 2 mg/L and the FIC index [1, 5] was 0.750. For the same compound, the Results [1, 5] was “Additive”, the “Compound 1 MIC in combination” value ([1]; strain 18-J11-034) was 2 mg/L and the FIC index [1, 6] was 0.750. For the same compound, the Results [1, 6] was “Additive”, the “Compound 1 MIC in combination” value ([1]; strain 18-J11-097) was 4 mg/L and the FIC index [1, 7] was 0.625. The Results [1, 7] was “Additive”, the “Compound 1 MIC in combination” value ([1]; strain 18-J15-030) was 8 mg/L and the FIC index [1, 8] was 0.750. The Results [1, 8] was “Additive”, the “Compound 1 MIC in combination” value ([1]; strain 18-J21-095) was 4 mg/L and the FIC index [1, 9] was 0.750. The Results [1, 9] was “Additive”, the “Compound 1 MIC in combination” value ([1]; strain 18-J24-015) was 2 mg/L and the FIC index [1, 10] was 0.750. The Results [1, 10] was “Additive”, the “Compound 1 MIC in combination” value ([1]; strain 18-J40-021) was 4 mg/L and the FIC index [1, 11] was 0.625. For the same compound, the Results [1, 11] was “Additive” and the “Compound 1 MIC in combination” value ([1]; strain 18-J51-052) was 2 mg/L.
For `C[C@@H](O)[C@H]1C(=O)N2C(C(=O)O)=C(S[C@@H]3CN[C@H](C(=O)N(C)C)C3)[C@H](C)[C@H]12` [Meropenem, reference compound], the MIC [2] was > 64 µg/mL, the MIC ([1]; strain 18-J11-001, read-out: Meropenem MIC alone) was 32 µg/mL and the MIC ([1]; strain 18-J11-002, read-out: Meropenem MIC alone) was 64 µg/mL. It also gave an MIC ([1]; strain 18-J11-034, read-out: Meropenem MIC alone) of 64 µg/mL, an MIC ([1]; strain 18-J11-097, read-out: Meropenem MIC alone) of 64 µg/mL and an MIC ([1]; strain 18-J15-030, read-out: Meropenem MIC alone) of 64 µg/mL. For the same compound, the MIC ([1]; strain 18-J21-095, read-out: Meropenem MIC alone) was 64 µg/mL, the MIC ([1]; strain 18-J24-015, read-out: Meropenem MIC alone) was 64 µg/mL and the MIC ([1]; strain 18-J40-021, read-out: Meropenem MIC alone) was 64 µg/mL. For the same compound, the MIC ([1]; strain 18-J51-052, read-out: Meropenem MIC alone) was 32 µg/mL, the “Meropenem MIC in combination” value ([1]; strain 18-J11-001) was 8 mg/L and the “Meropenem MIC in combination” value ([1]; strain 18-J11-002) was 16 mg/L. For the same compound, the “Meropenem MIC in combination” value ([1]; strain 18-J11-034) was 16 mg/L, the “Meropenem MIC in combination” value ([1]; strain 18-J11-097) was 16 mg/L and the “Meropenem MIC in combination” value ([1]; strain 18-J15-030) was 8 mg/L. For the same compound, the “Meropenem MIC in combination” value ([1]; strain 18-J21-095) was 16 mg/L, the “Meropenem MIC in combination” value ([1]; strain 18-J24-015) was 32 mg/L and the “Meropenem MIC in combination” value ([1]; strain 18-J40-021) was 16 mg/L. For the same compound, the “Meropenem MIC in combination” value ([1]; strain 18-J51-052) was 4 mg/L.
